Assay results reported in patent publication US10456359B2, “Synergistic beverage composition” (Harsha Chigurupati, priority 2015, dated 2019).
Where a SMILES comes first, the peptide text is derived from it.

What was measured:
[1] = tested on: serum alanine aminotransferase (ALT); experiment: Hepatoprotection study, serum ALT, alcohol 5 days; assay type: in vivo, Wistar albino rats; conditions: Pro: Protection (%), rats, alcohol 4 gm/kg/day p.o.
[2] = tested on: aspartate aminotransferase (AST); experiment: Hepatoprotection study, serum AST, alcohol 5 days; assay type: in vivo, Wistar albino rats; conditions: Pro: Protection (%), rats, alcohol 4 gm/kg/day p.o.
[3] = tested on: serum C-reactive protein (CRP); experiment: CNS/immunology study, serum CRP, alcohol 5 days; assay type: in vivo, Wistar albino rats; conditions: Pro: Protection (%), rats, alcohol 5 Day
From the text: (§1) For hangover, 1 day immunology parameter were considered and for CNS, 5 days immunology parameter were considered.

interleukin-12 (IL-12) [4] = experiment: CNS/immunology study, serum IL-12, alcohol 5 days; assay type: in vivo, Wistar albino rats; conditions: Pro: Protection (%), rats, alcohol 5 Day
From the text: as §1

[5] = tested on: Monocyte chemoattractant protein-1 (MCP-1); experiment: CNS/immunology study, serum MCP-1, alcohol 5 days; assay type: in vivo, Wistar albino rats; conditions: Pro: Protection (%), rats, alcohol 5 Day
Protocol: (§2) The lowest detectable limit of the kit is 0.1 ng/ml (Wang L, Li Y, Chen J, et al. “Ischemic Cerebral Tissue and MCP-1 Enhance Rat Bone Marrow Stromal Cell Migration in Interface Culture.” Experimental Hematology, 30, 7, 2002, 831-836).
as §1

Interferon gamma (IFN-γ) [6] = experiment: CNS/immunology study, serum IFN-gamma, alcohol 5 days; assay type: in vivo, Wistar albino rats; conditions: Pro: Protection (%), rats, alcohol 5 Day
From the text: (§3) Distilled ethanol was obtained from Bengal Chemicals, West Bengal, India. Biochemical kits like AST, ALT, ALP and total protein were obtained from Span Diagnostics Ltd. Surat, India. Rat IL-12 ELISA kit (Elabscience Biotechnology Co. Ltd, WuHan, P.R.C.), Rat CRP ELISA kit (BD Biosciences, USA), Rat IFN-gamma ELISA kit (Biolegend, San Diego, Calif.) Rat MCP-1 ELISA kit (Elabscience Biotechnology Co. Ltd, WuHan, P.R.C.). All the chemicals used in the present study were of analytical grade and obtained from the following companies: Sigma (St. Louis, Mo., USA), Merck (Mumbai, India), S D fine chemicals (Mumbai, India) and Qualigen (Mumbai, India).
as §1

[7] = tested on: interleukin-12 (IL-12) from brain homogenate; experiment: CNS study, IL-12 from brain homogenate, alcohol 5 days; assay type: in vivo, Wistar albino rats; conditions: Pro: Protection (%), rats, alcohol 5 Day
[8] = tested on: spatial learning and memory; experiment: Morris water maze task (escape latency), alcohol 5 days; assay type: in vivo, Wistar albino rats; conditions: Pro: Protection (%), rats, alcohol 5 day
[9] = tested on: serum C-reactive protein (CRP); experiment: Hangover study, serum CRP, alcohol 1 day; assay type: in vivo, Wistar albino rats; conditions: 1 Day alcohol
From the text: as §1

interleukin-12 (IL-12) [10] = experiment: Hangover study, serum IL-12, alcohol 1 day; assay type: in vivo, Wistar albino rats; parameters: concentration or dose not given beside the values; conditions: 1 Day alcohol
From the text: as §1

[11] = tested on: Monocyte chemoattractant protein-1 (MCP-1); experiment: Hangover study, serum MCP-1, alcohol 1 day; assay type: in vivo, Wistar albino rats; parameters: concentration or dose not given beside the values; conditions: 1 Day alcohol
Protocol: as §2, §1

Interferon gamma (IFN-γ) [12] = experiment: Hangover study, serum IFN-gamma, alcohol 1 day; assay type: in vivo, Wistar albino rats; parameters: concentration or dose not given beside the values; conditions: 1 Day alcohol
From the text: as §3, §1

[13] = tested on: alkaline phosphatase (ALP); conditions: Pro: Protection (%); rats, alcohol 4 gm/kg/day p.o., 5 days, serum
Protocol: The levels of alanine aminotransferase (ALT), aspartate aminotransferase (AST) and alkaline phosphatise (ALP) in serum were measured using commercial spectrophotometric kit bought from Span Diagnostic Ltd. (www.span.in) according to the manufacturer's protocols.
12-16 hours after the last dose, the animals were sacrificed and blood samples were collected for estimation of biochemical parameters.
Male Wistar albino rats weighing 150-200 g were procured and randomly divided into groups consisting of twelve (12) animals in each group. Hepatoprotection was induced by alcohol in rats by oral administration of 30% alcohol (4 gm/kg/day, p.o.) for 5 days and this group served as the negative control and treated groups received different formulation.
All drug solutions were prepared in 40% aqueous alcohol, adjusting the pH in the range of 5.0-10.0 for evaluation of alcohol induced Hepatoprotection. This solution was further diluted with distilled water to obtain 30% aqueous alcoholic solution and administered orally by gavage to different rats group of step (a).

[14] = tested on: acetylcholinesterase activity of brain homogenate; conditions: Pro: Protection (%), rats, alcohol 5 Day
Protocol: (§4) We have included this parameter to evaluate cognition and memory deficit in experimental animals.
(§5) Experimental Design • (b) Animal study model 1: Saline/Alcohol (4.0 gm/kg/day, p.o.)/Formulation with alcohol (4.0 gm/kg/day, p.o.) were administered (fed orally by orogastric cannula) for one day. 12-16 hours after the dose the animals were sacrificed and blood samples will be collected for estimation of biochemical parameters. Whole brain without cerebellum were dissected out, 10% homogenate was prepared with 0.1 M PB (pH 7.4). The homogenate solution was centrifuged at 10000 rpm for 20 minutes at 4° C. and the supernatant was used for estimation of acetylcholinesterase activity, which was estimated by Ellman's method (Ellman G L et al. A new and rapid colorimetric determination of acetylcholinesterase activity. Biochem Pharmacol, 1961, 7:88.) • (c) Animal study model 2: Saline/Alcohol (4.0 gm/kg/day, p.o.)/Formulation with alcohol (4.0 gm/kg/day, p.o.) were administered (fed orally by orogastric cannula) for 5 consecutive days. 12-16 hours after the last dose, the animals were sacrificed and blood samples were collected for estimation of biochemical parameters. Whole brain without cerebellum were dissected out, 10% homogenate was prepared with 0.1 M PB (pH 7.4). The homogenate solution was centrifuged at 10000 rpm for 20 minutes at 4° C. and the supernatant was used for estimation of acetylcholinesterase activity. […] The latency period of day 5 (before alcohol) was compared with post alcohol latency period (Vorhees C V and Williams M T. Morris water maze: procedures for assessing spatial and related forms of learning and memory, Nat Protoc, 2006, 1(2): 848-58.). % Protection Calculated in Above Experiments: % Protection=1−[(T−NS)/(AL−NS)]×100 T=Mean value of drug treated, NS=Mean value of normal control, AL=Mean value of alcohol alone.
(§6) Male Wistar albino rats weighing 150-200 g were procured and randomly divided into groups consisting of twelve (12) animals in each group. Alcohol induced hangover and CNS related biochemical changes and memory function in rats by oral administration of 30% alcohol (4 gm/kg/day, p.o.) for 1 and 5 days and this group served as the negative control and treated groups received different formulation.
(§7) All drug solutions were prepared in 40% aqueous alcohol, adjusting the pH in the range of 5.0-10.0 for evaluation of alcohol induced hangover and CNS related biochemical parameters.

[15] = tested on: acetylcholinesterase activity of brain homogenate; conditions: Hangover study, 1 Day alcohol; ingredient amounts in mass concentration (%)
Protocol: as §4, §5, §6, §7

[16] = tested on: interleukin-12 (IL-12) from brain homogenate; experiment: Hangover study, IL-12 from brain homogenate, alcohol 1 day; assay type: in vivo, Wistar albino rats; parameters: concentration or dose not given beside the values; conditions: 1 Day alcohol
[17] = tested on: Monocyte chemoattractant protein-1 (MCP-1) from brain homogenate; experiment: Hangover study, MCP-1 from brain homogenate, alcohol 1 day; assay type: in vivo, Wistar albino rats; conditions: 1 Day alcohol
[18] = tested on: Monocyte chemoattractant protein-1 (MCP-1) from brain homogenate; experiment: CNS study, MCP-1 from brain homogenate, alcohol 5 days; assay type: in vivo, Wistar albino rats; conditions: Pro: Protection (%), rats, alcohol 5 Day

| Compound | ALT Pro [1] | AST Pro [2] | CRP Pro [3] | IL12 Pro (interleukin-12 (IL-12) [4]) | MCP-1 Pro [5] | IFN-Gamma Pro (Interferon gamma (IFN-γ) [6]) | Brain IL12 Pro [7] | WATER MAZE Pro [8] | CRP Pro (Protection) [9] | IL12 Pro (Protection) (interleukin-12 (IL-12) [10]) | MCP-1 Pro (Protection) [11] | IFN-Gamma Pro (Protection) (Interferon gamma (IFN-γ) [12]) | ALP Pro [13] | ACHe Pro [14] | ACHe Pro (Protection) [15] | Brain IL12 Pro (Protection) [16] | Brain MCP-1 Pro (Protection) [17] | Brain MCP-1 Pro [18] |
| --- | --- | --- | --- | --- | --- | --- | --- | --- | --- | --- | --- | --- | --- | --- | --- | --- | --- | --- |
| C[C@H](N)C(=O)N[C@@H](CCC(N)=O)C(=O)O [3 DP, L-Ala-L-Gln] (H-Ala-Gln-OH) | 29.7% | 32.95% | 27.59% | 32.6% | 13.51% | 30.24% | 27.57% | 59.17% | 41.82% | 30.98% | 29.69% | 31.08% | 29.08% | 59.25% | 59.25% | – | – | – |
| C[C@H](N)C(=O)N[C@@H](CCC(N)=O)C(=O)O [1 DP, L-Ala-L-Gln] (H-Ala-Gln-OH) | 13.4% | 15.68% | 6.33% | 16.44% | 7.14% | 8.89% | 10.30% | 22.38% | 31.3% | 6.13% | 20.74% | 12.25% | 18.96% | 3.91% | – | 10.53% | 3.58% | – |
| OC[C@@H](O)[C@@H](O)[C@H](O)[C@H](O)CO [2.5 Man, D-Mannitol] | 38.4% | 42.57% | – | – | – | – | 28.33% | 25.4% | 18.33% | 21.4% | – | 18.22% | 34.75% | 30.61% | 45.12% | 23.16% | 27.66% | 24.65% |
| OC[C@@H](O)[C@@H](O)[C@H](O)[C@H](O)CO [1.2 Man, D-Mannitol] | 23.19% | 22% | – | – | – | – | 13.92% | 12.84% | 8.68% | 13.45% | 11.85% | 7.79% | 24.48% | 17.58% | 21.54% | 12.28% | 21.28% | 14.28% |
| CC1(C(=O)O)CCC2(C)CCC3(C)C(=CC(=O)C4C5(C)CCC(OC6OC(C(=O)O)C(O)C(O)C6OC6OC(C(=O)O)C(O)C(O)C6O)C(C)(C)C5CCC43C)C2C1 (stereo not drawn) [0.3 GA, 18β-GA] | 25.62% | 20.46% | 15.63% | 10.07% | 15.46% | 23.18% | 15.63% | 15.57% | 11.21% | – | 13.97% | 7.85% | 11.68% | 21.5% | – | – | 18.92% | 21.36% |
| C[C@H](N)C(=O)N[C@@H](CCC(N)=O)C(=O)O [2.0 DP, L-Ala-L-Gln] (H-Ala-Gln-OH) | 38.83% | 30.72% | 27.24% | 29.54% | 19.16% | 22.91% | – | 50.36% | 33.14% | 31.9% | 21.43% | 25.96% | 28.68% | 36.85% | 31.79% | 26.34% | 23.54% | 24.36% |
| C[C@H](N)C(=O)N[C@@H](CCC(N)=O)C(=O)O [1.5 DP, L-Ala-L-Gln] (H-Ala-Gln-OH) | 14.68% | 20.25% | 11.97% | 22.53% | 11.01% | – | – | 24.53% | 26.13% | 20.11% | 11.04% | 20.58% | 22.35% | 15.29% | 21.14% | 18.26% | 14.96% | – |
| C[C@H](N)C(=O)N[C@@H](CCC(N)=O)C(=O)O [1.25 DP, L-Ala-L-Gln] (H-Ala-Gln-OH) | 17.59% | 22% | – | 22.71% | 8.14% | 13.09% | 15.82% | 10.36% | 10.61% | – | 14.22% | 10.44% | 22.73% | 9.7% | 20.33% | 7.02% | 17.02% | – |
| OC[C@@H](O)[C@@H](O)[C@H](O)[C@H](O)CO [0.5 Man, D-Mannitol] | 3.59% | 4.28% | – | – | – | – | – | 4.95% | – | 3.59% | 3.27% | 3.51% | 4.78% | 5.22% | 4.12% | 4.25% | – | 2.75% |
